Starred links: 1 amine or outer side, 2 acyl side, 3 side chain; linkers in the order of their positions; H or OH if unused. Non-standard residues stand in square brackets, D forms with d. Residues, ends and D or L forms follow the SMILES beside them. Groups on a side chain read outwards from the residue. *: point of attachment. C20 diacid = O=C(O)CCCCCCCCCCCCCCCCCCC(=O)*; C18 diacid = O=C(O)CCCCCCCCCCCCCCCCC(=O)*; γGlu = O=C(O)[C@H](CCC(=O)[*:2])N[*:1]; AEEA = NCCOCCOCC(=O)O; Aib = CC(C)(N)C(=O)O

In this assay the target is T1, human CRF2α receptor (Homo sapiens, UniProt Q13324).
T1 construct: expressed in transfected cells; host or cells: TeloHEAC
T1 sequence (Q13324 1-411): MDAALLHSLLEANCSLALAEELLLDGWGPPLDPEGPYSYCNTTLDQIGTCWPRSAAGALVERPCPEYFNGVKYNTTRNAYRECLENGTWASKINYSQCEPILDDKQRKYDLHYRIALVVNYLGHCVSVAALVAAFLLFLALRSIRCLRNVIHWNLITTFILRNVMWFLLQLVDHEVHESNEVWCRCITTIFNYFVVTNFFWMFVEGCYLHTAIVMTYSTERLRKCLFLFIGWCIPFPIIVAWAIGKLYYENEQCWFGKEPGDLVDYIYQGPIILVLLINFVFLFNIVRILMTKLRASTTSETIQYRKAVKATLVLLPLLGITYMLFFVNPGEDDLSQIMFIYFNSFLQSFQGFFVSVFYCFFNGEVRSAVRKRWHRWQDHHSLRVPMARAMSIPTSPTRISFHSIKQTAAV
Kind of assay: cAMP agonism at human CRF2 α receptor in TeloHEAC cells (Example 7). It counts as cell-based. Particulars: cAMP HTRF, TeloHEAC cells stably expressing human CRF2 α, 0% HSA; read-out: EC50 [nM], 0% HSA. Summed up: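 Steps: thaw and wash cells; suspend in 1×HBSS, 20 mM HEPES, 0 or 0.1% HSA, 2 mM IBMX; add compound, 30 min RT; lyse with HTRF reagents, 1 h; read 665/620 nm. EC50 calculated, E% versus 1000 nM UCN2.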
In general terms: Time-resolved FRET reads energy transfer from a long-lived donor to a nearby acceptor.

A word on the EC50: it is the midpoint of the concentration-response curve. In the case of `CC[C@H](C)[C@H](NC(=O)[C@H](CCC(N)=O)NC(=O)[C@H](CCCCNC(=O)COCCOCCNC(=O)COCCOCCNC(=O)CC[C@H](NC(=O)CCCCCCCCCCCCCCCCCCC(=O)O)C(=O)O)NC(=O)[C@H](CC(C)C)NC(=O)CNC(=O)[C@@H](NC(=O)[C@@H]1CCCN1C(=O)[C@@H](NC(=O)[C@H](CC(=O)O)NC(=O)[C@H](CC(C)C)NC(=O)[C@H](CO)NC(=O)[C@H](CC(C)C)NC(=O)[C@@H](NC(=O)[C@@H](N)Cc1ccccc1)[C@@H](C)O)C(C)C)[C@@H](C)CC)C(=O)N[C@@H](CC(C)C)C(=O)N[C@@H](CC(C)C)C(=O)N[C@@H](CCCCN)C(=O)N[C@@H](CCC(N)=O)C(=O)N[C@@H](CCC(N)=O)C(=O)N[C@@H](CCCCN)C(=O)N[C@@H](CCC(N)=O)C(=O)N[C@@H](CCCCN)C(=O)N[C@@H](CCCCN)C(=O)N[C@@H](CCC(=O)O)C(=O)N[C@@H](CCCNC(=N)N)C(=O)N[C@@H](CCC(N)=O)C(=O)N[C@@H](CCC(N)=O)C(=O)N[C@@H](C)C(=O)N[C@@H](CCC(=O)O)C(=O)N[C@H](C(=O)N[C@@H](CC(N)=O)C(=O)N[C@H](C(=O)N[C@@H](CCC(N)=O)C(=O)N[C@@H](CC(C)C)C(=O)N[C@@H](CC(C)C)C(=O)N[C@@H](CCC(=O)O)C(=O)N[C@@H](CCCNC(=N)N)C(=O)N[C@H](C(N)=O)C(C)C)C(C)C)[C@@H](C)O` [compound 65] (H-FTLSLDVPIGLK([AEEA-AEEA-γGlu-C20 diacid])QILLKQQKQKKERQQAETNVQLLERV-NH2), the EC50 is 9.31 nM.
On to `CC[C@H](C)[C@H](NC(=O)[C@H](CCC(N)=O)NC(=O)[C@H](CCCCNC(=O)COCCOCCNC(=O)COCCOCCNC(=O)CC[C@H](NC(=O)CCCCCCCCCCCCCCCCCCC(=O)O)C(=O)O)NC(=O)[C@H](CC(C)C)NC(=O)CNC(=O)[C@@H](NC(=O)[C@@H]1CCCN1C(=O)[C@@H](NC(=O)[C@H](CC(=O)O)NC(=O)[C@H](CC(C)C)NC(=O)[C@H](CO)NC(=O)[C@H](CC(C)C)NC(=O)[C@@H](NC(=O)[C@@H](N)Cc1ccccc1)[C@@H](C)O)C(C)C)[C@@H](C)CC)C(=O)N[C@@H](CC(C)C)C(=O)N[C@@H](CC(C)C)C(=O)N[C@@H](CCCCN)C(=O)N[C@@H](CCC(N)=O)C(=O)N[C@@H](CCC(N)=O)C(=O)N[C@@H](CCCCN)C(=O)N[C@@H](CCC(N)=O)C(=O)N[C@@H](CCCCN)C(=O)N[C@@H](CCCCN)C(=O)N[C@@H](CCC(=O)O)C(=O)N[C@@H](CCCNC(=N)N)C(=O)N[C@@H](CCC(N)=O)C(=O)N[C@@H](CCCCN)C(=O)N[C@@H](C)C(=O)N[C@@H](CCC(=O)O)C(=O)N[C@H](C(=O)N[C@@H](CC(N)=O)C(=O)N[C@H](C(=O)N[C@@H](CCC(N)=O)C(=O)N[C@@H](CC(C)C)C(=O)N[C@@H](CC(C)C)C(=O)N[C@@H](CCC(=O)O)C(=O)N[C@@H](CCCNC(=N)N)C(=O)N[C@H](C(N)=O)C(C)C)C(C)C)[C@@H](C)O` [compound 66] (H-FTLSLDVPIGLK([AEEA-AEEA-γGlu-C20 diacid])QILLKQQKQKKERQKAETNVQLLERV-NH2; N-terminus assumed), for which the EC50 worked out at 25.4 nM.
With `CC[C@H](C)[C@H](N)C(=O)N[C@H](C(=O)N[C@@H](CC(C)C)C(=O)N[C@@H](CO)C(=O)N[C@@H](CC(C)C)C(=O)N[C@@H](CC(=O)O)C(=O)N[C@H](C(=O)N1CCC[C@H]1C(=O)N[C@H](C(=O)N[C@@H](CCCCN)C(=O)N[C@@H](CC(C)C)C(=O)N[C@@H](CCCCNC(=O)COCCOCCNC(=O)COCCOCCNC(=O)CC[C@H](NC(=O)CCCCCCCCCCCCCCCCC(=O)O)C(=O)O)C(=O)N[C@@H](CCCCN)C(=O)NC(C)(C)C(=O)N[C@@H](CC(C)C)C(=O)N[C@@H](CC(C)C)C(=O)N[C@@H](CCC(=O)O)C(=O)N[C@@H](CCC(N)=O)C(=O)N[C@@H](CCC(=O)O)C(=O)N[C@@H](CCCNC(=N)N)C(=O)N[C@@H](CCC(N)=O)C(=O)N[C@@H](CCCCN)C(=O)N[C@@H](CCCCN)C(=O)N[C@@H](CCC(N)=O)C(=O)N[C@@H](CCCNC(=N)N)C(=O)N[C@@H](CCC(=O)O)C(=O)N[C@@H](CCC(N)=O)C(=O)N[C@@H](C)C(=O)N[C@@H](CCC(=O)O)C(=O)N[C@H](C(=O)N[C@@H](CC(N)=O)C(=O)NC(C)(C)C(=O)N[C@@H](CCC(N)=O)C(=O)N[C@H](C(=O)N[C@@H](CC(C)C)C(=O)N[C@@H](C)C(=O)N[C@@H](CCC(N)=O)C(=O)N[C@H](C(N)=O)C(C)C)[C@@H](C)CC)[C@@H](C)O)[C@@H](C)CC)C(C)C)C(C)C` [compound 71] (H-IVLSLDVPIKLK([AEEA-AEEA-γGlu-C18 diacid])K[Aib]LLEQERQKKQREQAETN[Aib]QILAQV-NH2; N-terminus assumed) the figure was 3.15 nM; with `CC[C@H](C)[C@H](N)C(=O)N[C@H](C(=O)N[C@@H](CC(C)C)C(=O)N[C@@H](CO)C(=O)N[C@@H](CC(C)C)C(=O)N[C@@H](CC(=O)O)C(=O)N[C@H](C(=O)N1CCC[C@H]1C(=O)N[C@H](C(=O)N[C@@H](CCCCN)C(=O)N[C@@H](CC(C)C)C(=O)N[C@@H](CCCCNC(=O)COCCOCCNC(=O)COCCOCCNC(=O)CC[C@H](NC(=O)CCCCCCCCCCCCCCCCC(=O)O)C(=O)O)C(=O)N[C@@H](CCC(N)=O)C(=O)N[C@H](C(=O)N[C@@H](CC(C)C)C(=O)N[C@@H](CC(C)C)C(=O)N[C@@H](CCC(=O)O)C(=O)N[C@@H](CCC(N)=O)C(=O)N[C@@H](CCC(=O)O)C(=O)N[C@@H](CCCNC(=N)N)C(=O)N[C@@H](CCC(N)=O)C(=O)N[C@@H](CCCCN)C(=O)N[C@@H](CCCCN)C(=O)N[C@@H](CCC(N)=O)C(=O)N[C@@H](CCCNC(=N)N)C(=O)N[C@@H](CCC(N)=O)C(=O)N[C@@H](CCCCN)C(=O)N[C@@H](C)C(=O)N[C@@H](CCC(=O)O)C(=O)N[C@H](C(=O)N[C@@H](CC(N)=O)C(=O)NC(C)(C)C(=O)N[C@@H](CCC(N)=O)C(=O)N[C@H](C(=O)N[C@@H](CC(C)C)C(=O)N[C@@H](C)C(=O)N[C@@H](CCC(N)=O)C(=O)N[C@H](C(N)=O)C(C)C)[C@@H](C)CC)[C@@H](C)O)[C@@H](C)CC)[C@@H](C)CC)C(C)C)C(C)C` [compound 73] (H-IVLSLDVPIKLK([AEEA-AEEA-γGlu-C18 diacid])QILLEQERQKKQRQKAETN[Aib]QILAQV-NH2), 2.6 nM.
Regarding `CC[C@H](C)[C@H](N)C(=O)N[C@H](C(=O)N[C@@H](CC(C)C)C(=O)N[C@@H](CO)C(=O)N[C@@H](CC(C)C)C(=O)N[C@@H](CC(=O)O)C(=O)N[C@H](C(=O)N1CCC[C@H]1C(=O)N[C@H](C(=O)N[C@@H](CCCCN)C(=O)N[C@@H](CC(C)C)C(=O)N[C@@H](CCCCNC(=O)COCCOCCNC(=O)COCCOCCNC(=O)CC[C@H](NC(=O)CCCCCCCCCCCCCCCCC(=O)O)C(=O)O)C(=O)N[C@@H](CCC(N)=O)C(=O)N[C@H](C(=O)N[C@@H](CC(C)C)C(=O)N[C@@H](CC(C)C)C(=O)N[C@@H](CCC(=O)O)C(=O)N[C@@H](CCC(N)=O)C(=O)N[C@@H](CCC(=O)O)C(=O)N[C@@H](CCCNC(=N)N)C(=O)N[C@@H](CCC(N)=O)C(=O)N[C@@H](CCCCN)C(=O)N[C@@H](CCCCN)C(=O)N[C@@H](CCC(N)=O)C(=O)N[C@@H](CCCNC(=N)N)C(=O)N[C@@H](CCC(=O)O)C(=O)N[C@@H](CCC(N)=O)C(=O)N[C@@H](C)C(=O)N[C@@H](CCC(=O)O)C(=O)N[C@H](C(=O)N[C@@H](CC(N)=O)C(=O)NC(C)(C)C(=O)N[C@@H](CCC(N)=O)C(=O)N[C@H](C(=O)N[C@@H](CC(C)C)C(=O)N[C@@H](CCC(=O)O)C(=O)N[C@@H](CCCNC(=N)N)C(=O)N[C@H](C(N)=O)C(C)C)[C@@H](C)CC)[C@@H](C)O)[C@@H](C)CC)[C@@H](C)CC)C(C)C)C(C)C` [compound 74] (H-IVLSLDVPIKLK([AEEA-AEEA-γGlu-C18 diacid])QILLEQERQKKQREQAETN[Aib]QILERV-NH2), the EC50 was determined as 2.12 nM.
The value for `CC[C@H](C)[C@H](N)C(=O)N[C@H](C(=O)N[C@@H](CC(C)C)C(=O)N[C@@H](CO)C(=O)N[C@@H](CC(C)C)C(=O)N[C@@H](CC(=O)O)C(=O)N[C@H](C(=O)N1CCC[C@H]1C(=O)N[C@H](C(=O)NCC(=O)N[C@@H](CC(C)C)C(=O)N[C@@H](CCCCNC(=O)COCCOCCNC(=O)COCCOCCNC(=O)CC[C@H](NC(=O)CCCCCCCCCCCCCCCCC(=O)O)C(=O)O)C(=O)N[C@@H](CCC(N)=O)C(=O)N[C@H](C(=O)N[C@@H](CC(C)C)C(=O)N[C@@H](CC(C)C)C(=O)N[C@@H](CCC(=O)O)C(=O)N[C@@H](CCC(N)=O)C(=O)N[C@@H](CCC(=O)O)C(=O)N[C@@H](CCCNC(=N)N)C(=O)N[C@@H](CCC(N)=O)C(=O)N[C@@H](CCCCN)C(=O)N[C@@H](CCCCN)C(=O)N[C@@H](CCC(N)=O)C(=O)N[C@@H](CCCNC(=N)N)C(=O)N[C@@H](CCC(N)=O)C(=O)N[C@@H](CCC(N)=O)C(=O)N[C@@H](C)C(=O)N[C@@H](CCC(=O)O)C(=O)N[C@H](C(=O)N[C@@H](CC(N)=O)C(=O)NC(C)(C)C(=O)N[C@@H](CCC(N)=O)C(=O)N[C@H](C(=O)N[C@@H](CC(C)C)C(=O)N[C@@H](C)C(=O)N[C@@H](CCC(N)=O)C(=O)N[C@H](C(N)=O)C(C)C)[C@@H](C)CC)[C@@H](C)O)[C@@H](C)CC)[C@@H](C)CC)C(C)C)C(C)C` [compound 76] (H-IVLSLDVPIGLK([AEEA-AEEA-γGlu-C18 diacid])QILLEQERQKKQRQQAETN[Aib]QILAQV-NH2) was 13.4 nM.

The record behind these values is US12679878B2, “CRF2 receptor agonists and their use in therapy” (SANOFI, priority 2020, dated 2026).
